# Reference: patent US10286022B2, “Medicinal composition of extract of seed of emblica officinalis and method of preparing the same” (priority 2013, dated 2019)
# Columns and labels:
# cholesterol fed rabbits = test: Hypolipidemic activity in cholesterol fed rabbits (Example 23); assay type: in vivo, rabbit
# Procedure: The amla seed extract as prepared in example 1 was evaluated for hypolipidemic activity in experimental rabbits. Male NZ white rabbits weighing 1.5-2.0 kg were used for the experiment. They were housed in a temperature-controlled room (25±2° C.) in clean stainless steel cages with ‘12 h light and 12 h dark’ cycles and fed with normal pellet diet and water ad libitum.
# After the acclimatization period of 10 days, blood samples were collected from marginal ear vein of all the rabbits. The blood was allowed to clot and then centrifuged at 3000 rpm for 10 min and the serum was carefully drawn and collected into separate tubes. The serum was analyzed for total cholesterol, triglycerides, high density lipoproteins (HDL), low density lipoproteins (LDL) and very low density lipoproteins (VLDL) levels using auto-analyzer.
# After taking baseline lipid profile the animals were divided into four groups having six animals in each group. Following treatment was given to the animals for the three months:
# Blood samples were collected from all the rabbits after 3 months of treatment and serum was analyzed for lipid profile. After blood collection the animals were sacrificed after injecting pentobarbitone and aorta was dissected out, washed with saline and preserved in 10% formalin for histopathology. The sections were cut using microtome and stained with heamatoxylin & eosin dye and mounted on glass slides. The slides were observed under microscope and aortic intima media thickness (IMT) was measured by histomorphometry.
# [1] = test system: Triton WR 1339 induced dyslipidemia in Albino rats (Sprague Dawley strain); test: Hypolipidemic activity of enriched amla seed extract, Triton WR 1339 model (Example 28); assay type: in vivo, rat
# Procedure: Fifty two male Albino rats (Sprague Dawley strain) weighing approximately 250-300 gm were selected for the study. The animals were maintained at temperature of 24±2° C., 65% relative humidity and 12 hr light/dark cycle. The rats were acclimatized for two weeks and during this period they had access to standard pellet diet and water ad libitum. After two weeks of acclimatization, all the rats were fasted overnight before injecting Triton WR 1339 (Tyloxapol) and administration of test extracts/standard. The animals were divided into thirteen groups. Following treatment was given to overnight fasted rats: • Group I: Normal control (vehicle only). • Group II: Triton WR 1339 (300 mg/kg, intraperitoneal). • Group III: Triton WR 1339 (300 mg/kg, intraperitoneal) followed by administering sample 1 of Amla seed extract prepared as per example 27 on the same day of triton administration (0.5 mg/kg, per oral). • Group IV: Triton WR 1339 (300 mg/kg, intraperitoneal) followed by Amla seed extract prepared as per example 1 (0.5 mg/kg, per oral). • Group V: Triton WR 1339 (300 mg/kg, intraperitoneal) followed by sample 2 which is a 1:1 combination of amla seed extract (sample 1) prepared as per example 27 and product 1 (Hexane fraction) of amla seed extract prepared as per example 13 on the same day that Triton was administered (0.5 mg/kg, per oral). • Group VI: Triton WR 1339 (300 mg/kg, intraperitoneal) followed by administering product of amla seed extract (product 3) prepared as per example 13 on the same day of triton administration (0.5 mg/kg, per oral). • Group VII: Triton WR 1339 (300 mg/kg, intraperitoneal) followed by product 2 (50% methanol fraction+80% methanol fraction+water fraction) of amla seed extract prepared as per example 13 on the same day that triton was administered (0.5 mg/kg, per oral). • Group VIII: Triton WR 1339 (300 mg/kg, intraperitoneal) followed by product 1 (hexane fraction) of amla seed extract prepared as per example 13 on the same day that triton was administered (0.5 mg/kg, per oral). • Group IX: Triton WR 1339 (300 mg/kg, intraperitoneal) followed by water extract of dried amla seed powder prepared as per example 8 (0.5 mg/kg, per oral). • Group X: Triton WR 1339 (300 mg/kg, intraperitoneal) followed by methanol extract of dried amla seed powder prepared as per example 9 (0.5 mg/kg, per oral). • Group XI: Triton WR 1339 (300 mg/kg, intraperitoneal) followed by water extract of dried amla fruit powder prepared as per example 11 (0.5 mg/kg, per oral). • Group XII: Triton WR 1339 (300 mg/kg, intraperitoneal) followed by methanol extract of dried amla fruit powder prepared as per example 12 (0.5 mg/kg, per oral). • Group XIII: Triton WR 1339 (300 mg/kg, intraperitoneal) followed by atorvastatin administration (10 mg/kg, per oral), on the same day.
# The animals were deprived of food for next 24 hours but had free access to water ad libitum. After 24 hours of drug treatment, 2 ml of blood sample was collected from the retro orbital plexus. The blood was allowed to clot and then centrifuged at 3000 rpm for 10 min and the serum was carefully drawn and collected into separate tubes. The serum was analyzed for total cholesterol, triglycerides, high density lipoproteins (HDL), low density lipoproteins (LDL) and very low density lipoproteins (VLDL) levels using auto-analyzer.
# [2] = after 3 months cholesterol 100 mg/kg + 10 mg/kg
# [3] = 24 h after Triton i.p. + 10 mg/kg p.o.
compound,measurement,setting,value
CC(C)c1c(C(=O)Nc2ccccc2)c(-c2ccccc2)c(-c2ccc(F)cc2)n1CC[C@@H](O)C[C@@H](O)CC(=O)O [Atorvastatin],effect on total cholesterol and triglyceride level,"cholesterol fed rabbits; 10 mg/kg, 3 months, compared to untreated control group",decreased the total cholesterol and triglyceride level significantly
same,HDL After,cholesterol fed rabbits; [2],20.37 mg/dL
same,LDL After,cholesterol fed rabbits; [2],82.8 mg/dL
same,TC After,cholesterol fed rabbits; [2],118.9 mg/dL
same,TG After,cholesterol fed rabbits; [2],78.67 mg/dL
same,VLDL After,cholesterol fed rabbits; [2],15.73 mg/dL
same,Aortic intima media thickness,"cholesterol fed rabbits; after 3 months cholesterol 100 mg/kg + 10 mg/kg, histomorphometry",112.36 μm
same,HDL Before,"cholesterol fed rabbits; baseline, 10 mg/kg group",14.15 mg/dL
same,LDL Before,"cholesterol fed rabbits; baseline, 10 mg/kg group",27.88 mg/dL
same,TC Before,"cholesterol fed rabbits; baseline, 10 mg/kg group",53.69 mg/dL
same,TG Before,"cholesterol fed rabbits; baseline, 10 mg/kg group",58.28 mg/dL
same,VLDL Before,"cholesterol fed rabbits; baseline, 10 mg/kg group",11.66 mg/dL
same,HDL After,[1]; [3],35.1 mg/dL
same,LDL After,[1]; [3],49.39 mg/dL
same,TC After,[1]; [3],124.54 mg/dL
same,TG After,[1]; [3],200.25 mg/dL
same,VLDL After,[1]; [3],40.06 mg/dL
same,HDL Before,"[1]; baseline, 10 mg/kg p.o. group",32.41 mg/dL
same,LDL Before,"[1]; baseline, 10 mg/kg p.o. group",61.7 mg/dL
same,TC Before,"[1]; baseline, 10 mg/kg p.o. group",104.21 mg/dL
same,TG Before,"[1]; baseline, 10 mg/kg p.o. group",50.54 mg/dL
same,VLDL Before,"[1]; baseline, 10 mg/kg p.o. group",10 mg/dL
